From patent publication US9771353B2, “Kinase inhibitors based upon N-alkyl pyrazoles” (RESPIVERT LIMITED, priority 2013, dated 2017)
Read-outs that look alike come from different tables or passages of the source.

What was measured:
[1] = tested on: d-U937 cells; assay: LPS-induced TNFα/IL-8 release in d-U937 cells, assay (a); format: cell-based; conditions: Homo sapiens, LPS-stimulated dU937 cells
Experimental: U937 cells, a human monocytic cell line, are differentiated to macrophage-type cells by incubation with phorbol myristate acetate (PMA; 100 ng/mL) for 48 to 72 hr. Cells are pre-incubated with final concentrations of test compound for 2 hr and are then stimulated with 0.1 μg/mL of LPS (from E. Coli: O111:B4, Sigma) for 4 hr. The supernatant is collected for determination of TNFα and IL-8 concentrations by sandwich ELISA (Duo-set, R&D systems). The inhibition of TNFα production is calculated as a percentage of that achieved by 10 μg/mL of BIRB796 at each concentration of test compound by comparison against vehicle control. The relative 50% effective concentration (REC50) is determined from the resultant concentration-response curve. The inhibition of IL-8 production is calculated at each concentration of test compound by comparison with vehicle control.

[2] = tested on: PBMCs; assay: LPS-induced TNFα/IL-8 release in PBMC cells, assay (b); format: cell-based; conditions: Homo sapiens, LPS-stimulated PBMCs, read-out: IC50 Values for Inhibition of Cytokine Release, PBMCs IL-8
Experimental: Peripheral blood mononuclear cells (PBMCs) from healthy subjects are separated from whole blood using a density gradient (Lymphoprep, Axis-Shield Healthcare). The PBMCs are seeded in 96 well plates and treated with compounds at the desired concentration for 2 hours before addition of 1 ng/mL LPS (Escherichia Coli 0111:B4 from Sigma Aldrich) for 24 hours under normal tissue culture conditions (37° C., 5% CO2). The supernatant is harvested for determination of IL-8 and TNFα concentrations by sandwich ELISA (Duo-set, R&D systems) and read on the fluorescence microplate reader (Varioskan® Flash, ThermoFisher Scientific).

[3] = tested on: d-U937 cells; assay: Accumulation of β catenin in d-U937 cells, assay (m); format: cell-based, human
Experimental: U937 cells, a human monocytic cell line, are differentiated into macrophage-type cells by incubation with PMA; (100 ng/mL) for between 48 to 72 hr. The cells are then incubated with either final concentrations of test compound or vehicle for 18 hr. The induction of β-catenin by the test compounds is stopped by replacing the media with 4% formaldehyde solution. Endogenous peroxide activity is neutralised by incubating with quenching buffer (100 μL, 0.1% sodium azide, 1% H2O2 in PBS with 0.05% Tween-20) for 20 min. The cells are washed with washing buffer (200 μL; PBS containing 0.05% Tween-20) and incubated with blocking solution (200 μL; 5% milk in PBS) for 1 hr, re-washed with washing buffer (200 μL) and then incubated overnight with anti-β-catenin antibody solution (50 μL) in 1% BSA/PBS (BD, Oxford, UK).
After washing with washing buffer (3×200 μL; PBS containing 0.05% Tween-20), cells are incubated with an HRP-conjugated secondary antibody solution (100 μL) in 1% BSA/PBS (Dako, Cambridge, UK) and the resultant signal is determined colourimetrically (OD: 450 nm with a reference wavelength of 655 nm) using TMB substrate (50 μL; R&D Systems, Abingdon, UK). This reaction is stopped by addition of 1N H2SO4 solution (50 μL). Cells are then washed with washing buffer and 2% crystal violet solution (50 μL) is applied for 30 min. After washing with washing buffer (3×200 μL), 1% SDS (100 μL) is added to each well and the plates are shaken lightly for 1 hr prior to measuring the absorbance at 595 nm (Varioskan® Flash, Thermo-Fisher Scientific).
The measured OD450-655 readings are corrected for cell number by dividing the OD450-655 by the OD595 readings. The percentage induction for each well is calculated relative to vehicle, and the ratio of induction normalised in comparison with the induction produced by a standard control comprising of N-(4-(4-(3-(3-tert-butyl-1-p-tolyl-1H-pyrazol-5-yl)ureido)naphthalen-1-yloxy)pyridin-2-yl)-2-methoxyacetamide (1 μg/mL) which is defined as 100%.

[4] = tested on: HT29 cells; assay: IL-1β-induced IL-8 release in HT29 cells, assay (d); format: cell-based; conditions: Homo sapiens, HT-29, IL-1β-stimulated HT29 cells, read-out: IC50 Values for Inhibition of Cytokine Release, HT29 cells IL-8
Experimental: HT29 cells, a human colon adenocarcinoma cell line, are plated in a 96 well plate (24 hrs) and pre-treated with compounds at the desired concentration for 2 hours before addition of 5 ng/mL of IL-1β (Abcam) for 24 hours. Supernatants are harvested for IL-8 quantification by Sandwich ELISA (Duo-set, R&D System). The IC50 is determined from the dose response curve.

[5] = biological target: Syk (Homo sapiens (Human), UniProt P43405); assay: Syk enzyme inhibition (FRET, Z-LYTE); format: biochemical
Experimental: The enzyme inhibitory activities of compounds disclosed herein are determined by FRET using synthetic peptides labelled with both donor and acceptor fluorophores (Z-LYTE, Invitrogen Ltd., Paisley, UK).
The inhibitory activities of compounds of the invention against c-Src and Syk enzymes (Invitrogen), are evaluated in a similar fashion to that described hereinabove. The relevant enzyme (3000 ng/mL or 2000 ng/mL respectively, 2.5 μL) is incubated with the test compound (either 4 μg/mL, 0.4 μg/mL, 0.04 μg/mL, or 0.004 μg/mL, 2.5 μL each) for 2 hr at RT. The FRET peptides (8 μM, 2.5 μL), and appropriate ATP solutions (2.5 μL, 800 μM for c-Src, and 60 μM ATP for Syk) are then added to the enzymes/compound mixtures and incubated for 1 hr. Development reagent (protease, 5 μL) is added for 1 hr prior to detection in a fluorescence microplate reader (Varioskan® Flash, ThermoFisher Scientific).
In all cases, the site-specific protease cleaves non-phosphorylated peptide only and eliminates the FRET signal. Phosphorylation levels of each reaction are calculated using the ratio of coumarin emission (donor) over fluorescein emission (acceptor), for which high ratios indicate high phosphorylation and low ratios indicate low phosphorylation levels.

[6] = tested on: PBMCs; assay: IL-2 and IFN gamma release in CD3/CD28 stimulated PBMC cells, assay (c); format: cell-based; conditions: Homo sapiens
Experimental: PBMCs from healthy subjects are separated from whole blood using a density gradient (Lymphoprep, Axis-Shield Healthcare). Cells are added to a 96 well plate pre-coated with a mixture of CD3/CD28 monoclonal antibodies (0.3 μg/mL eBioscience and 3 μg/mL BD Pharmingen respectively). Compound at the desired concentration is then added to the wells and the plate left for 3 days under normal tissue culture conditions. Supernatants are harvested and IL-2 and IFN gamma release determined by Sandwich ELISA (Duo-set, R&D System). The IC50 is determined from the dose response curve.

[7] = IL-8, read-out: IC50 Values for Inhibition of Cytokine Release, dU937 cells IL-8
[8] = TNFα (method describes REC50 relative to BIRB796), read-out: IC50 Values for Inhibition of Cytokine Release, dU937 cells TNFα
[9] = 1 μg/mL test compound, normalised to reference N-(4-(4-(3-(3-tert-butyl-1-p-tolyl-1H-pyrazol-5-yl)ureido)naphthalen-1-yloxy)pyridin-2-yl)-2-methoxyacetamide
[10] = 5 μg/mL test compound, normalised to the same reference compound
[11] = IL-2, read-out: IC50 Values for Inhibition of Cytokine Release, PBMCs IL-2

Row | Structure (SMILES) | IC50 [1, 7] | IC50 [1, 8] | IC50 [2] | % β-catenin induction [3, 9] | % β-catenin induction [3, 10] | % β-catenin induction ([3]; 10 μg/mL test compound, normalised to the same reference compound) | IC50 [4] | IC50 [5] | IC50 ([6]; IFNγ, read-out: IC50 Values for Inhibition of Cytokine Release, PBMCs IFNγ) | IC50 [6, 11]
1 | COCCOCCOCCOc1cc(Nc2nccc(Oc3ccc(NC(=O)Nc4cc(C(C)(C)C)nn4C)c4ccccc34)n2)cc(OC)c1 [Example 2, 1-(3-(tert-Butyl)-1-methyl-1H-pyrazol-5-yl)-3-(4-((2-((3-methoxy-5-(2-(2-(2-methoxy-ethoxy)ethoxy)ethoxy)phenyl)amino)pyrimidin-4-yl)oxy)naphthalen-1-yl)urea] | 1 nM | 2 nM | 3.6 nM | −2% | 6.5% | 4.5% | 16.6 nM | 543 nM | 6.2 nM | 11.3 nM
2 | C#Cc1cc(Nc2nccc(Oc3ccc(NC(=O)Nc4cc(C(C)(C)C)nn4C)c4ccccc34)n2)cc(C(=O)NCCN2CCOCC2)c1 [Example 1, 3-((4-((4-(3-(3-(tert-Butyl)-1-methyl-1H-pyrazol-5-yl)ureido)naphthalen-1-yl)oxy)pyrimidin-2-yl)amino)-5-ethynyl-N-(2-morpholinoethyl)benzamide] | 6.7 nM | 2.4 nM | 1.6 nM | −1.5% | 10.5% | – | 33.4 nM | 149 nM | – | 17.5 nM
